In patent publication US8791140B2, “Crystalline forms of 6-[2-(methylcarbamoyl)phenylsulfanyl]-3-E-[2-(pyridin-2-yl)ethenyondazole suitable for the treatment of abnormal cell growth in mammals” (Pfizer Inc., priority 2007, dated 2014):

Conditions: solid, 1X ICH Option 1 light exposure, Atlas Suntest XLS+ light box, 320 nm cutoff filter
Experimental: A photochemical comparative study of Form XLI, Form XXV, and Form IV was performed.
Approximately 50 mg of each form was placed in 20 ml glass vials. The sample depth was <3 mm. The vials were covered with a quartz glass dish and placed in an Atlas Suntest XLS+ light box equipped with a 320 nm cutoff filter. […] The samples were exposed to artificial light equivalent to the International Conference on Harmonization (ICH) Guidelines for Photostability Testing of New Drug Substances, Option 1 exposure.

Row | Structure (SMILES) | Potency (wt/wt %) after light exposure [%]
1 | CNC(=O)c1ccccc1Sc1ccc2c(/C=C/c3ccccn3)n[nH]c2c1 [Form IV, 6-[2-(methylcarbamoyl)phenylsulfanyl]-3-E-[2-(pyridin-2-yl)ethenyl]indazole] | 34
2 | CNC(=O)c1ccccc1Sc1ccc2c(/C=C/c3ccccn3)n[nH]c2c1 [Form XLI, 6-[2-(methylcarbamoyl)phenylsulfanyl]-3-E-[2-(pyridin-2-yl)ethenyl]indazole] | 89
3 | CNC(=O)c1ccccc1Sc1ccc2c(/C=C/c3ccccn3)n[nH]c2c1 [Form XXV, 6-[2-(methylcarbamoyl)phenylsulfanyl]-3-E-[2-(pyridin-2-yl)ethenyl]indazole] | 100
